Laboratory results: US12285408B2, “Methods and compositions for the treatment of snake bite” (priority 2021, dated 2025)

How the values were obtained:
Echis ocellatus venom [1] = assay: Murine 'challenge then treat' model of envenoming, intraperitoneal; assay type: in vivo, CD-1 mice
Protocol: FIG. 18. […] Kaplan-Meier survival graphs for experimental animals (n=5) that received E. ocellatus venom (intraperitoneal administration of 90 μg; 5×iv. LD50), followed by delayed drug treatment intraperitoneally 15 mins later. […] For the DMPS and antivenom (D+AV) group, experimental animals received 120 μg of DMPS 15 mins after venom, and intravenous antivenom (168 μl of the E. ocellatus monospecific antivenom EchiTAbG, MicroPharm Ltd, UK) 1 hr after venom delivery. All DMPS data presented is taken from Albulescu et al. “Preclinical validation of a repurposed metal chelator as an early-intervention therapeutic for hemotoxic snakebite. Sci. Trans. Med. 12, eaay8314 (2020)”).
To better mimic a snakebite scenario, mice were initially challenged with venom, followed by the delayed administration of a single drug or a combination of drugs, as previously described. The venom challenge dose was increased to ensure complete lethality in the venom-only control group occurred within 4-5 hours. Groups of five male 18-22 g CD-1 mice (Charles River, UK) were injected with venom (100 μl final volume), followed by a drug dose that was scaled up accordingly after 15 min. […] Experimental animals were monitored for 24 h, with humane end points for euthanasia, and data recording, performed as described above. […]

[2] = Tolerability of oral DMPS; assay type: in vivo
Echis ocellatus venom [3] = conditions: previous work, same preclinical model; cited from earlier work
[4] = test system: SVMP activity of E. ocellatus, E. carinatus, B. asper and B. arietans venoms; assay: In vitro kinetic fluorogenic SVMP assay (Study 2); assay type: biochemical
Description: FIG. 10. […] (A) SVMP activities of the five viper venoms quantified by fluorogenic assay. The data presented represent mean measurements and SEMs of area under the curves of fluorescent arbitrary units taken from three independent experimental runs. EOC, E. ocellatus; ECAR, E. carinatus; BAS, Bothrops asper, BAR, Bitis arietans; DRUS, Daboia russelii. (B) The effectiveness of metal chelators and peptidomimetic hydroxamate inhibitors at inhibiting the SVMP activity of the various viper venoms. Drug concentrations from 150 μM to 150 nM (highest to lowest dose tested) are presented. The data is expressed as percentage of the venom-only sample (100%, top dashed line). The negative control is presented as an interval (bottom dashed lines) and represents the values recorded in the PBS-only samples (expressed as percentage of venom activity), where the highest and the lowest values in each set of independent experiments are depicted. […] All data represent triplicate independent repeats with SEMs, where each technical repeat represents the mean of n≥2 technical replicates.
We used an in vitro kinetic fluorogenic assay^28 to assess the SVMP bioactivity of each venom and its inhibition by varying concentrations of the four SVMP-inhibitors.
The SVMP assay measuring metalloproteinase activity and the plasma assay measuring coagulation in the presence or absence of venoms and inhibitors were performed as previously described^28. The SVMP assay kinetically measured cleavage of a quenched fluorogenic substrate (ES010, R&D Biosystems) by venom in the presence or absence of inhibitors.
Briefly, 10 μl of the substrate (supplied as a 6.2 mM stock) was used per 5 ml reaction buffer (150 mM NaCl, 50 mM Tris-CI pH 7.5). Reactions consisted of 10 μl of venom±inhibitors in PBS and 90 μl of substrate. Venoms were used at 1 μg/reaction and final inhibitor concentrations ranged from 150 μM to 150 nM. Samples were preincubated for 30 min at 37° C. and pipetted in triplicate into 384-well plates (Greiner). Thereafter, data was collected on an Omega FLUOstar (BMG Labtech) instrument at an excitation wavelength of 320 nm and emission wavelength of 405 nm at 25° C. for 1 h. The areas under the curve (AUCs) in the 0-40 min interval were calculated for each sample using MARS data analysis software v3.31 (BMG Labtech); this time point was chosen as the time where all fluorescence curves had reached a plateau (maximum fluorescence). For comparing venom-only samples, the means of at least three independent experimental runs for each condition, expressed as AUCs (n≥3), were plotted at each inhibitor concentration with standard error of the mean (SEM). To determine inhibitor efficacy, the AUCs for each of the samples that consisted of venom+inhibitors were transformed and expressed as percentages of the venom-only sample (where the venom was 100%). The negative control (PBS only) was also expressed relative to the venom, and the variation in background was presented as an interval delineated by the lowest and highest values in the PBS-only samples across concentrations and inhibitors for a specific venom. […] However, only the latter two concentrations were sufficiently depleted of DMSO for viable use in the assay.

[5] = cited from earlier work
[6] = Water solubility when preparing stocks; assay type: physicochemical

For `O=S(=O)(O)CC(S)CS` (stereo not drawn) [DMPS, 2,3-dimercapto-1-propanesulfonic acid], the “survival” value (Echis ocellatus venom [1]; 90 μg venom i.p. (5×i.v. LD50), 120 μg of each drug i.p. 15 min later, 24 h monitoring, n=5) was “only two of the five experimental animals survived”, the “adverse effects in drug-only controls” value (Echis ocellatus venom [1]; drug only, i.p., 24 hour monitoring) was “None of the animals receiving DMPS alone displayed any adverse effects” and the “oral dose that is well tolerated and safe” value [2] was “up to 1,500 mg”. The “time for which lethality was prevented” value (Echis ocellatus venom [3]) was roughly 8 h, the “lowest concentration effective / required to fully inhibit SVMP activities” value ([4]; concentrations tested 150 μM to 150 nM) was 15 µM and the IC50 ([4]; range across venoms, 1 μg venom/reaction, read-out: IC50s, inhibition of SVMP activity) was 290 to 4190 nM.

For `CNC(=O)[C@@H](NC(=O)[C@H](CC(C)C)[C@H](O)C(=O)NO)C(C)(C)C` [marimastat], the “side effects” value ([5]; single doses of up to 800 mg, bidaily 200 mg for 6.5 days, or 75 mg daily for 28 days) is given as “no notable side effects” and the “neutralization of SVMP bioactivity” value ([4]; marimastat 150 nM-150 μM, batimastat […] and 150 nM only) is given as “complete in vitro neutralization”.

In the case of `CCc1c(C(=O)C(N)=O)c2c(OCC(=O)O)cccc2n1Cc1ccccc1` [varespladib], the “tolerability” value ([5]; Phase 1 and 2) is given as “well tolerated”, the “risk of major adverse cardiovascular events” value ([5]; Phase 2B, same daily dose, >300 patients for >6 months) is given as “no greater risk of major adverse cardiovascular events” and the “risk of myocardial infarction” value ([5]; Phase 3, acute coronary syndrome patients, 500 mg oral daily) is given as “greater risk of myocardial infarction than those receiving placebo”. For the same compound, the “water solubility” value [6] was “water insolubility”.
